Laboratory results taken from ChEMBL document CHEMBL1201862, “PubChem BioAssay data set” (2004).
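Cells were grown in 96-well plates and exposed to each compound for 48 hours at five concentrations; endpoints were interpolated linearly between bracketing concentrations, or set to the highest concentration if not reached. Abbreviation: GI50, concentration required for 50% inhibition of growth.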 Activity calls are given as the source filed them. No stated cut-off is given here; in the data, active = GI50 up to about 1.1 µM and inactive = higher.

Experiments:
Assay in all cases: inhibition of tumour cell growth, NCI panel, 48 h
[1] = tested on: ACHN
[2] = tested on: KM12
[3] = tested on: SN12C
[4] = tested on: Malme-3M
[5] = tested on: A549
[6] = tested on: LOX IMVI
[7] = tested on: DLD-1
[8] = tested on: IGROV-1
[9] = tested on: SW-620
[10] = tested on: RXF 393
[11] = tested on: COLO 205
[12] = tested on: CAKI-1
[13] = tested on: SNB-19
[14] = tested on: HCT-116
[15] = tested on: UACC-257
[16] = tested on: SR
[17] = tested on: NCI-H522

Measured: GI50

CC1=NN(C(=O)CC(=O)Nc2cccc(Cl)c2)C(=O)C1/N=N/c1ccc(S(N)(=O)=O)cc1 (stereo not given)
inactive: [1] > 100 µM | [2] > 100 µM | [3] > 100 µM | [4] > 100 µM | [5] > 100 µM | [6] > 100 µM | [7] > 100 µM | [8] > 100 µM | [9] > 100 µM | [10] > 100 µM | [11] > 100 µM | [12] > 100 µM | [13] > 100 µM | [14] > 100 µM | [15] > 100 µM | [16] > 100 µM | [17] > 100 µM

C[Si](C)(C)C#C[I+]c1ccccc1
inactive: [1] 41.8 µM | [2] 87.3 µM | [3] 21.7 µM | [4] 41 µM | [5] > 100 µM | [6] 19.1 µM | [7] 19.4 µM | [8] 92 µM | [10] 47.4 µM | [11] 17.7 µM | [12] 42.8 µM | [13] > 100 µM | [14] 27.5 µM | [15] > 100 µM | [17] 9.4 µM

COc1ccc(OC(C)C(=O)O)c2c1CCCC2=O (stereo not given)
inactive: [1] > 100 µM | [2] > 100 µM | [3] > 100 µM | [4] > 100 µM | [5] > 100 µM | [6] > 100 µM | [7] > 100 µM | [8] > 100 µM | [9] > 100 µM | [10] > 100 µM | [11] > 100 µM | [13] > 100 µM | [14] > 100 µM | [15] > 100 µM | [16] > 100 µM | [17] > 100 µM

C/C(=N/OCCC(=O)O)C1CC1
inactive: [1] > 100 µM | [2] > 100 µM | [3] > 100 µM | [4] > 100 µM | [5] > 100 µM | [6] > 100 µM | [7] > 100 µM | [8] > 100 µM | [9] > 100 µM | [10] > 100 µM | [11] > 100 µM | [12] > 100 µM | [13] > 100 µM | [14] > 100 µM | [16] 90.4 µM | [17] > 100 µM

O=C(c1ccccc1)c1nnn(Cc2ccccc2Cn2nnc(C(=O)c3ccccc3)c2C(=O)c2ccccc2)c1C(=O)c1ccccc1
inactive: [1] > 100 µM | [2] > 100 µM | [3] > 100 µM | [4] > 100 µM | [5] 48.2 µM | [6] > 100 µM | [7] > 100 µM | [8] 94.4 µM | [9] > 100 µM | [11] 50.5 µM | [12] > 100 µM | [13] > 100 µM | [14] > 100 µM | [15] > 100 µM | [16] > 100 µM | [17] > 100 µM

COc1ccc(-c2c(C3=NCCCN3)nnn2-c2ccc([N+](=O)[O-])cc2)cc1
inactive: [1] > 100 µM | [2] > 100 µM | [3] > 100 µM | [4] > 100 µM | [5] > 100 µM | [6] > 100 µM | [7] > 100 µM | [8] > 100 µM | [9] > 100 µM | [10] > 100 µM | [11] > 100 µM | [12] > 100 µM | [13] > 100 µM | [14] > 100 µM | [15] > 100 µM | [16] > 100 µM | [17] > 100 µM

COC1C(OC(=S)Nc2ccccc2)c2ccccc2N1C(C)=O (stereo not given)
inactive: [1] 29 µM | [2] 29.9 µM | [3] > 100 µM | [5] 87.7 µM | [7] 90.2 µM | [8] 80.4 µM | [9] 34 µM | [10] 26.5 µM | [11] > 100 µM | [12] 85.1 µM | [13] > 100 µM | [14] > 100 µM | [15] > 100 µM | [16] 48.6 µM

Cc1ccc(-c2cc(=S)n(-c3ccccc3)c3[nH]c(=S)n(-c4ccccc4)c(=N)c23)cc1
inactive: [1] > 100 µM | [2] > 100 µM | [4] > 100 µM | [5] > 100 µM | [7] > 100 µM | [8] > 100 µM | [9] > 100 µM | [11] > 100 µM | [12] > 100 µM | [13] > 100 µM | [14] > 100 µM | [15] > 100 µM | [16] > 100 µM | [17] 77.8 µM

CN(C)/C(=N/C(=S)Nc1ccccc1)SCc1ccccc1
inactive: [1] 45 µM | [2] 7.23 µM | [3] 66.2 µM | [4] 40.2 µM | [5] 32 µM | [6] 42 µM | [7] 44.3 µM | [8] 74.3 µM | [9] > 100 µM | [10] 27.7 µM | [11] 14.9 µM | [12] 24.2 µM | [13] 40.3 µM | [15] 36.6 µM | [17] 2.73 µM
